Measured values taken from patent US7247441B2, “Nucleic acid sequence and protein in addition to polypeptides coding for mannitol dehydrogenases or parts thereof and the production and use thereof in diagnosis and therapy” (Biomay Produktions- Und Handels-Aktienge Sellschaft, priority 2002, dated 2007).

Molecular target: T1, Cladosporium herbarum mannitol dehydrogenase (Cladosporium herbarum, UniProt P0C0Y5)
T1 construct: the enzyme activity was determined with the traditionally purified protein; from tissue; host or cells: Cladosporium herbarum extract (ammonium sulfate precipitation, HIC, anion exchange)
Experiment: Enzyme activity determination, absorption of NADPH at 340 nm
Format: biochemical
Method: The experiments reveal that the highly purified major allergen of Cladosporium herbarum is indeed a mannitol dehydrogenase which catalyzes the following metabolic reaction: Fructose+NADPH+H^+ ? mannitol+NADP^+. […] The method of the activity determination is described in example 3.
To confirm the results according to the invention, the enzyme activity was determined with the traditionally purified protein. The absorption of NADPH was measured in a photometer at 340 nm.
• 50 mM Tris-HCl, pH 7.5 • 0.25 mM NADPH or NADH • D-fructose or fructose-6-phosphate (0.1; 0.2; 0.4; 0.6; 0.8; 1.0; 1.2 M) • H2O to 1 ml • the reaction is started with 0.5 μl of MtDH Results: • Reaction with fructose and NADPH • No reaction with fructose-6-phosphate and NADH

T1 sequence (P0C0Y5 whole entry): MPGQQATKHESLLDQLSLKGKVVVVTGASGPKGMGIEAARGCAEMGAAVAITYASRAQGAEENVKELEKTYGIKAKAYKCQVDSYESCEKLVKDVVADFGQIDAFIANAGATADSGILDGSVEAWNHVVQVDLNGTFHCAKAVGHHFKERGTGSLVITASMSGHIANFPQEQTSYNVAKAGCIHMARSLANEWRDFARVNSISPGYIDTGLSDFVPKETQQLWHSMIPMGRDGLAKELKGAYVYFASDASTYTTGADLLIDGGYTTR

SMILES	activity as cosubstrate or substrate of the mannitol dehydrogenase	effect on the reaction fructose + NADPH to mannitol + NADP+
NC(=O)C1=CN([C@@H]2O[C@H](COP(=O)(O)OP(=O)(O)OC[C@H]3O[C@@H](n4cnc5c(N)ncnc54)[C@H](O)[C@@H]3O)[C@@H](O)[C@H]2O)C=CC1 [NADH]	not active as cosubstrate	
O=C(CO)[C@@H](O)[C@H](O)[C@H](O)COP(=O)(O)O [fructose-6-phosphate]	not active as substrate	inhibitory effect
